Laboratory results from US20140243243A1, “DEVICE AND METHOD FOR CELL-EXCLUSION PATTERNING” (Corning Incorporated, priority 2012, published 2014).

Test system: cells growing in a cell-exclusion patterned cell culture
Experiment: Cell-exclusion patterned cell culture in the presence and absence of a drug (cell proliferation and migration)
Format: cell-based
Conditions: uncoated well bottoms; micrographs pretreatment (t=0 h), after 14 h and 40 h of treatment; FIG. 11
Protocol: Cell-exclusion patterning was carried out by a sequence of steps, as illustrated in FIG. 3. In Step A, complete medium was added to wells of a microtiter plate. The volume added was approximately 30 ul for 384-well plates or 75 ul for 96-well plates. In step B, a comb having guide pins and blocking pins was lowered into the microtiter plate and the blocking pins were locked into the desired wells and the guide pins into the corresponding guide holes. In step C, cells were introduced into the wells of the microtiter plate by adding a solution containing cells to the walls of the wells. The volume of the cell solution was approximately 20 ul for 384-well plates or 25-50 ul for 96-well plates. The cell density was 8000 cells per well and 30,000 cells per well for 384- and 96-well plates, respectively. In step D, the cells were allowed to settle and adhere to the well bottom inside a cell culture hood for about 45 min. The microplates were then placed inside a humidified incubator at 37° C. and 5% CO2 for 3-4 h to allow the cells to attach to the well bottom. In step E, the comb and the pins were removed from the wells. Drugs were then added, if necessary to carry out an assay.
Cell patterns were imaged by bright-field or fluorescent microscopy or by using Corning Epic® label-free high-resolution optical resonance detection system (available from Corning Incorporated, Corning, N.Y.). […]

SMILES: C=C1[C@@H](C)[C@H]2[C@H](Cc3ccccc3)NC(=O)[C@]23[C@H](OC(C)=O)/C=C/[C@@](C)(O)C(=O)[C@@H](C)C/C=C/[C@H]3[C@@H]1O [CytoD, Cytochalasin D]
- growth of cells into the cell exclusion area over time: cells do not grow into the cell exclusion area over time
